Laboratory results reported in patent publication US20250382305A1 (PTC THERAPEUTICS, INC., priority 2022, published 2025).

Key:
[1] = system: ATXN3 pre-mRNA; assay: RT-qPCR Assay to Quantify Exon 4 Skipping in ATXN3 pre-mRNA in Cells; assay type: cell-based; details: percent exon 4 skipping in ATXN3 pre-mRNA, RT-qPCR of cell lysates; average IC50
Summary of the method: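 Cells plated at 10,000/well onto a 7-point, 3.16-fold DMSO dilution series (duplicates), incubated 24 h at 37 °C, then lysed. Exon 4 skipping measured by one-step RT-qPCR (48 °C RT, 40 cycles); IC50 interpolated from dose-response fit of percent skipping.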

[2] = system: Total ATXN3 (tATXN3) protein; assay: Endogenous Total ATXN3 (tATXN3) Protein Assay (MSD immunoassay of cell lysates); assay type: cell-based; details: average IC50, total ATXN3 protein in cell lysate after 48 h with compound (Table 1)
Summary of the method: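 Cells in DMEM/10% FBS were plated at 10,000 per well onto 7-point, 3.16-fold compound dilutions in duplicate for 48 h at 37° C, then lysed. Total ATXN3 in lysates was measured by MSD sandwich immunoassay: mouse anti-ATXN3 capture, rabbit anti-ATXN3 detection, SULFO-TAG anti-rabbit. Average IC50 was reported in star bins.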

IC50 [1]	IC50 [2]	Compound
≤ 30 nM	≤ 30 nM	N[C@H]1CC=CC[C@@H]1c1sc2c(NCc3cccs3)cc(Cl)nc2c1C#CC[C@@H](O)CO [Compound 211, (R)-5-(2-((1S,6S)-6-aminocyclohex-3-en-1-yl)-5-chloro-7-((thiophen-2-ylmethyl)amino)thieno[3,2-b]pyridin-3-yl)pent-4-yne-1,2-diol]
30 to 300 nM	30 to 300 nM	COC(=O)CNc1cc(Cl)nc2c(Br)c([C@H]3CC=CC[C@@H]3N)sc12 [Compound 366, methyl (2-((1S,6S)-6-aminocyclohex-3-en-1-yl)-3-bromo-5-chlorothieno[3,2-b]pyridin-7-yl)glycinate]
30 to 300 nM	30 to 300 nM	C#Cc1c([C@H]2CCCC[C@@H]2N)sc2c(NCc3ccco3)cc(Cl)nc12 [Compound 357, 2-((1S,2S)-2-aminocyclohexyl)-5-chloro-3-ethynyl-N-(furan-2-ylmethyl)thieno[3,2-b]pyridin-7-amine]
> 1000 nM	> 1000 nM	N[C@H]1CCC[C@]1(F)c1sc2c(NCc3ccco3)cc(Cl)nc2c1Cl [Compound 121, 2-((1R,2S)-2-amino-1-fluorocyclopentyl)-3,5-dichloro-N-(furan-2-ylmethyl)thieno[3,2-b]pyridin-7-amine]
≤ 30 nM	≤ 30 nM	Cc1c([C@H]2COCC[C@@H]2N)sc2c(NCc3cccs3)cc(Cl)nc12 [Compound 232, 2-((3R,4S)-4-aminotetrahydro-2H-pyran-3-yl)-5-chloro-3-methyl-N-(thiophen-2-ylmethyl)thieno[3,2-b]pyridin-7-amine]
≤ 30 nM	≤ 30 nM	N[C@H]1CC=CC[C@@H]1c1sc2c(NCc3ccncc3)nc(Cl)nc2c1Cl [Compound 214, 6-((1S,6S)-6-aminocyclohex-3-en-1-yl)-2,7-dichloro-N-(pyridin-4-ylmethyl)thieno[3,2-d]pyrimidin-4-amine]
30 to 300 nM	30 to 300 nM	C=Cc1c([C@H]2CC=CC[C@@H]2N)sc2c(NCc3cccs3)cc(Cl)nc12 [Compound 267, 2-((1S,6S)-6-aminocyclohex-3-en-1-yl)-5-chloro-N-(thiophen-2-ylmethyl)-3-vinylthieno[3,2-b]pyridin-7-amine]
30 to 300 nM	30 to 300 nM	CC#CCNc1cc(Cl)nc2c(I)c([C@@H]3CC=CC[C@H]3N)sc12 [Compound 386, 2-((1R,6R)-6-aminocyclohex-3-en-1-yl)-N-(but-2-yn-1-yl)-5-chloro-3-iodothieno[3,2-b]pyridin-7-amine]
≤ 30 nM	≤ 30 nM	Cc1c([C@H]2CC=CC[C@@H]2N)sc2c(NCc3nccs3)nc(Cl)nc12 [Compound 223, 6-((1S,6S)-6-aminocyclohex-3-en-1-yl)-2-chloro-7-methyl-N-(thiazol-2-ylmethyl)thieno[3,2-d]pyrimidin-4-amine]
300 to 1000 nM	300 to 1000 nM	N[C@@H]1CCCO[C@H]1c1sc2c(NCc3ccco3)cc(Cl)nc2c1Br [Compound 118, 2-((2R,3R)-3-aminotetrahydro-2H-pyran-2-yl)-3-bromo-5-chloro-N-(furan-2-ylmethyl)thieno[3,2-b]pyridin-7-amine]
≤ 30 nM	≤ 30 nM	N[C@H]1CCCO[C@@H]1c1sc2c(NCc3ccccc3)cc(Cl)nc2c1I [Compound 136, 2-((2S,3S)-3-aminotetrahydro-2H-pyran-2-yl)-N-benzyl-5-chloro-3-iodothieno[3,2-b]pyridin-7-amine]
30 to 300 nM	30 to 300 nM	Cc1c([C@@H]2CC=CC[C@H]2N)sc2c(NCc3ccsc3)cc(Cl)nc12 [Compound 419, 2-((1R,6R)-6-aminocyclohex-3-en-1-yl)-5-chloro-3-methyl-N-(thiophen-3-ylmethyl)thieno[3,2-b]pyridin-7-amine]
≤ 30 nM	30 to 300 nM	Cc1c([C@H]2CC=CC[C@@H]2N)sc2c(NCc3ccccc3)cc(Cl)nc12 [Compound 258, 2-((1S,6S)-6-aminocyclohex-3-en-1-yl)-N-benzyl-5-chloro-3-methylthieno[3,2-b]pyridin-7-amine]
30 to 300 nM	30 to 300 nM	[2H]C1=C([2H])C([2H])([2H])[C@H](c2sc3c(NC([2H])([2H])c4ccccc4)cc(Cl)nc3c2C)[C@@H](N)C1([2H])[2H] [Compound 322, 2-((1S,6S)-6-aminocyclohex-3-en-1-yl-2,2,3,4,5,5-d6)-5-chloro-3-methyl-N-(phenylmethyl-d2)thieno[3,2-b]pyridin-7-amine]
30 to 300 nM	30 to 300 nM	CC#CCNc1cc(Cl)nc2c(Br)c([C@H]3OCCC[C@@H]3N)sc12 [Compound 343, 2-((2S,3S)-3-aminotetrahydro-2H-pyran-2-yl)-3-bromo-N-(but-2-yn-1-yl)-5-chlorothieno[3,2-b]pyridin-7-amine]

The remaining lines, values behind:

Compound	IC50 [1]	IC50 [2]
N[C@H]1CCCCC[C@@H]1c1cc2nc(Cl)cc(NCc3cccs3)c2s1 [Compound 90, 2-((1S,2S)-2-aminocycloheptyl)-5-chloro-N-(thiophen-2-ylmethyl)thieno[3,2-b]pyridin-7-amine]	300 to 1000 nM	300 to 1000 nM
5-(2-chloro-6-((1R,6R)-6-(methylamino)cyclohex-3-en-1-yl)-4-((thiophen-2-ylmethyl)amino)thieno[3,2-d]pyrimidin-7-yl)pent-4-yn-1-ol and 5-(2-chloro-6-((1S,6S)-6-(methylamino)cyclohex-3-en-1-yl)-4-((thiophen-2-ylmethyl)amino)thieno[3,2-d]pyrimidin-7-yl)pent-4-yn-1-ol [Compound 293]	30 to 300 nM	30 to 300 nM
2-((1R,2R)-2-amino-5,5-difluorocyclohexyl)-5-chloro-3-methyl-N-(thiophen-2-ylmethyl)thieno[3,2-b]pyridin-7-amine and 2-((1S,2S)-2-amino-5,5-difluorocyclohexyl)-5-chloro-3-methyl-N-(thiophen-2-ylmethyl)thieno[3,2-b]pyridin-7-amine [Compound 333]	30 to 300 nM	30 to 300 nM
2-((2R,3R)-3-aminotetrahydro-2H-pyran-2-yl)-5-chloro-N-(2-fluorobenzyl)thieno[3,2-b]pyridin-7-amine and 2-((2S,3S)-3-aminotetrahydro-2H-pyran-2-yl)-5-chloro-N-(2-fluorobenzyl)thieno[3,2-b]pyridin-7-amine [Compound 28]	> 1000 nM	> 1000 nM
N[C@H]1CCCC[C@H]1c1sc2c(NCc3cccs3)cc(Cl)nc2c1Br [Compound 53, 2-((1R,2S)-2-aminocyclohexyl)-3-bromo-5-chloro-N-(thiophen-2-ylmethyl)thieno[3,2-b]pyridin-7-amine]	300 to 1000 nM	300 to 1000 nM
Cc1c([C@H]2OCCC[C@@H]2N)sc2c(NCc3ccccc3)nc(Cl)nc12 [Compound 63, 6-((2S,3S)-3-aminotetrahydro-2H-pyran-2-yl)-N-benzyl-2-chloro-7-methylthieno[3,2-d]pyrimidin-4-amine]	30 to 300 nM	30 to 300 nM
2-((1R,6S)-6-amino-2,2-difluorocyclohexyl)-3-bromo-5-chloro-N-(thiophen-2-ylmethyl)thieno[3,2-b]pyridin-7-amine and 2-((1S,6R)-6-amino-2,2-difluorocyclohexyl)-3-bromo-5-chloro-N-(thiophen-2-ylmethyl)thieno[3,2-b]pyridin-7-amine [Compound 269]	30 to 300 nM	30 to 300 nM
2-((3R,4S)-3-aminotetrahydro-2H-pyran-4-yl)-5-chloro-3-(prop-1-yn-1-yl)-N-(thiophen-2-ylmethyl)thieno[3,2-b]pyridin-7-amine and 2-((3S,4R)-3-aminotetrahydro-2H-pyran-4-yl)-5-chloro-3-(prop-1-yn-1-yl)-N-(thiophen-2-ylmethyl)thieno[3,2-b]pyridin-7-amine [Compound 227]	≤ 30 nM	≤ 30 nM
2-((1R,2R)-2-aminocyclohexyl)-N-benzyl-5-chloro-3-(prop-1-yn-1-yl)thieno[3,2-b]pyridin-7-amine and 2-((1S,2S)-2-aminocyclohexyl)-N-benzyl-5-chloro-3-(prop-1-yn-1-yl)thieno[3,2-b]pyridin-7-amine [Compound 226]	≤ 30 nM	≤ 30 nM
6-((3R,4S)-3-aminotetrahydro-2H-pyran-4-yl)-2-chloro-N-(furan-2-ylmethyl)-7-iodothieno[3,2-d]pyrimidin-4-amine and 6-((3S,4R)-3-aminotetrahydro-2H-pyran-4-yl)-2-chloro-N-(furan-2-ylmethyl)-7-iodothieno[3,2-d]pyrimidin-4-amine [Compound 245]	≤ 30 nM	≤ 30 nM
N[C@H]1CCCO[C@@H]1c1sc2c(NCc3ccco3)cc(Cl)nc2c1Br [Compound 115, 2-((2S,3S)-3-aminotetrahydro-2H-pyran-2-yl)-3-bromo-5-chloro-N-(furan-2-ylmethyl)thieno[3,2-b]pyridin-7-amine]	≤ 30 nM	≤ 30 nM
N[C@@H]1CCCO[C@@H]1c1sc2c(NCc3cccs3)cc(Cl)nc2c1Cl [Compound 17, 2-((2S,3R)-3-aminotetrahydro-2H-pyran-2-yl)-3,5-dichloro-N-(thiophen-2-ylmethyl)thieno[3,2-b]pyridin-7-amine]	> 1000 nM	> 1000 nM
Cc1c([C@@H]2CCCC[C@@H]2N)sc2c(NCc3cccs3)cc(Cl)nc12 [Compound 50, 2-((1R,2S)-2-aminocyclohexyl)-5-chloro-3-methyl-N-(thiophen-2-ylmethyl)thieno[3,2-b]pyridin-7-amine]	30 to 300 nM	300 to 1000 nM
